Legend:
[1] = tested on: PRL mRNA; test: Real-time RT-PCR of PRL mRNA in trigeminal ganglia; assay type: in vivo, rat
Excerpt: The S.A.M. and GeneSpring 5.1 analyses identified 18 genes whose expression increased and 3 genes whose expression decreased. […] The expression profile of genes selected using the microarray screen was confirmed by real-time RT-PCR. Validated primers were used for each gene and expression was normalized to the housekeeping gene 18S. Data are presented as mean±SEM (n=5/group, **=p<0.01 and ***=p<0.001 versus respective vehicle control; two-tailed unpaired T test). […] For this reason, PRL was selected for further study as a candidate therapeutic target for female-biased pain disorders.
Reactions were performed using primers specific for PRL gene and the internal control (18S). Data were normalized to the relative amount of OVX (vehicle) PRL mRNA/18S. Data are presented as mean±SEM (n=5/group, **=p<0.01 and ***=p<0.001 vs. PRL mRNA of the OVX/Vehicle group; one-way ANOVA with Bonferroni's post hoc test). […] Moreover, the relative PRL mRNA expression in the TG of intact female rats during proestrous was 78-fold greater (p<0.001). The TG samples collected from these groups were also subjected to Western blot analysis to determine the relative expression of PRL protein. […] The results obtained from these experiments were quantified as described in the METHODS section. […] The specificity of anti-PRL antibodies was evaluated by a use of the blocking peptide corresponding to the epitope of PRL. Pre-absorption of anti-PRL antibodies with the blocking peptide nearly eliminated the PRL-specific band (FIGS. 2B, 2C).
RNA isolation: Harvested TG tissue from OVX (treated with vehicle or estradiol) or intact proestrous female rats were immediately frozen in liquid nitrogen and ground in a pre-chilled mortar. The ground tissue was used to isolate total RNA by the guanidinium thiocyanate method as described previously (Chomczynski and Sacchi, 1987). […] Additional RNA sample aliquots were used as template for the quantitative real time RT-PCR experiments.
Quantitative Real Time RT-PCR (qRT-PCR): Total RNA (100 ng) was used as template in a one-step RT-PCR protocol. […]

[2] = tested on: PRL-R; test: Western blot of PRL-R isoforms in TG of OVX rats; assay type: in vivo, rat; settings: TG of OVX rats, 2, 20 or 80 μg/kg s.c. daily for 10 days
Excerpt: There are two isoforms of the rat PRL receptor (PRL-R) that differ in the length of their cytoplasmic tail and are therefore termed the long and short isoforms. […] Moreover, the differential expression of these receptors is regulated by estrogen in certain tissues (Sakaguchi et al., 1994; Pi et al., 2003). To determine whether estrogen regulates the expression of the PRL-R in the female TG, protein extracts prepared from TG of OVX rats and subjected to Western blot analysis using an anti-PRL-R antibody that recognizes both the long and the short PRL-R isoforms. FIG. 3A depicts a representative immunoblot of this experiment. The antibody recognized two bands migrating at approximately 100 KDa and 40 KDa corresponding to the long and short PRL-R isoforms respectively. Blots were stripped and probed with an antibody against beta-actin to normalize for loading differences. […] The data are presented as mean±SEM (n=4/group, *=p<0.05 and **=p<0.01; one-way ANOVA with Bonferroni's post hoc test).
At the end of the 10th day, animals were used for behavioral experiments or sacrificed by decapitation and the TG of each individual animal were harvested. Harvested tissue was used for RNA isolation, total protein isolation, or for preparing primary cultures of TG neurons. […]

## C[C@]12CC[C@@H]3c4ccc(O)cc4CC[C@H]3[C@@H]1CC[C@@H]2O [estradiol, 17-β-estradiol]
[1]; OVX rats undergoing estradiol replacement, summary statement
  PRL mRNA estradiol responsiveness in TG neurons: > 40 fold
[1]; OVX rats with estradiol replacement 80 μg/kg/day×10 days, normalized to 18S, FIG. 2A
  increase in PRL mRNA expression in TG vs OVX control rats: approximately 50 fold
[1]; TG of OVX rats, 80 μg/kg/day for 10 days vs vehicle, normalized to 18S, FIG. 1
  increase in PRL mRNA expression in response to estradiol: 48 fold
[2]
  expression of the long form of PRL-R: increases expression of the long form of PRL-R in the TG of OVX rats in a dose-dependent manner
  expression of the short form of the PRL-R: does not appear to significantly affect expression of the short form of the PRL-R

— patent US7507716B2, “Method for treating pain with prolactin antagonists” (Board of Regents, The University of Texas System, priority 2005, dated 2009)
